In US20090281065A1, “Use of Lysophospholipids to Treat Inflammation” (priority 2008, published 2009):
Marks after values point to notes of the source that are not given here.

Experiments:
TNBS induced colitis [1] = system: TNBS induced colitis
IL6 = test: Plasma cytokine ELISA in TNBS colitis rats: IL6; details: Example 3; oral day 4-10: PB6 1.5 108 CFU/Kg thrice daily; Lysophospholipid 10.3 mg/Kg 2 times daily; combination 25.75 mg/ml 2 times daily; Mesacol 250 mg/Kg once daily
IL10 = test: Plasma cytokine ELISA in TNBS colitis rats: IL10
TNF-α = test: Plasma cytokine ELISA in TNBS colitis rats: TNF-α
IL1-β = test: Plasma cytokine ELISA in TNBS colitis rats: IL1-β
IFN-γ = test: Plasma cytokine ELISA in TNBS colitis rats: IFN-γ
TGF-β = test: Plasma cytokine ELISA in TNBS colitis rats: TGF-β
TNBS induced colitis [2] = test: TNBS induced colitis in rats: colon wet weight and macroscopic colon score; details: for Colon Score / Colon wet weight (g): day 11
[3] = parameters: species or system Cobb 400 broiler chickens; details: in vivo
[4] = parameters: species or system Cobb 400 broiler chickens; details: in vivo; remark: listed apart in the source
HepG2/NFκB-Luc cells = test: Cytotoxicity test (AlamarBlue reduction rate); assay type: cell-based; details: 2 mg/ml (~3636 μM) LPC content; 4 hours; FIG. 8
Experimental: An overnight culture of HepG2/NFκB-Luc cells were trypsinized and transferred to 96-well microtiter plate, with 1.5×10^4 cells/well. The 96-well microtiter plates were incubated for 24 hours at 37° C. with 5% CO2. Then different concentrations of LPC samples were added into plate wells together with AlamarBlue. The cells were incubated for 4 hours at 37° C. with 5% CO2 before the OD570 and OD600 readings were measured. Culture medium with no LPC added was used as a control. The cytotoxicity was reflected by the amount of AlamarBlue being reduced (reduction rate (RR)) as determined by the following formula:
RR %={[(εoxλ2)(Aλ1)−(εoxλ1)(Aλ2)]}/{[(εredλ1)(A′λ2)−(εredλ2)(A′λ1)]}×100%
where, εredλ1=155677 (absorption coefficient of reduced AlamarBlue at 570 nm) • Εredλ2=14652 (absorption coefficient of reduced AlamarBlue at 600 nm) • εoxλ1=80586 (absorption coefficient of oxidized AlamarBlue at 570 nm) • εoxλ2=117216 (absorption coefficient of oxidized AlamarBlue at 600 nm) • A′λ1=OD570 of the blank control (wells with AlamarBlue but no cells) • A′λ2=OD600 of the blank control (wells with AlamarBlue but no cells).

NFκB = test: Inflammation test without TNF-α (NFκB luciferase reporter); assay type: cell-based; details: FIG. 9
Experimental: An overnight culture of HepG2/NFκB-Luc cells were trypsinized and transferred to 96-well microtiter plate, with 1.5×10^4 cells/well. […] After incubation, the supernatant was removed, and 100 μl of luciferase substrate was added into each well and incubated for 5 minutes. Then 80 μl of the solution was transferred to a clean microtiter plate to determine the florescence unit by Steady-Glo® Luciferase Assay System. The LPC-treated cells without substrate added were used as control.

[5] = Example 3, oral day 4-10: PB6 1.5 108 CFU/Kg thrice daily, Lysophospholipid 10.3 mg/Kg 2 times daily, combination 25.75 mg/ml 2 times daily, Mesacol 250 mg/Kg once daily
[6] = Example 4, Lysoprin + Marinol + lutein at 21.5 mg/kg orally thrice daily day 4-10, Mesacol 250 mg/Kg orally once daily

Nc1ccc(O)c(C(=O)O)c1 [Mesacol, 5-aminosalicylic acid]
% Body weight gain/loss Day 1-4 (TNBS induced colitis [1]; Example 3, TNBS day 1, Day 1-4 is prior to treatment (treatment from day 4)): −6.6% | % Body weight gain/loss Day 4-10 (TNBS induced colitis [1]; Example 3, oral day 4-10: PB6 1.5 10^8 CFU/Kg thrice daily, Lysophospholipids 10.3 mg/Kg 2 times daily, combination 25.75 mg/ml 2 times daily, Mesacol 250 mg/Kg once daily): −1.87% | mortalities due to severe weight loss (TNBS induced colitis [1]; Example 4, Mesacol 250 mg/kg group, n=6): two | IL6 level in Plasma Day 11 (IL6): 127.4^a picogram/ml | IL10 level in Plasma Day 7 (IL10; [5]): 217.9ab picogram/ml | IL10 level in Plasma Day 11 (IL10; [5]): 444c picogram/ml | IL10 level in Plasma Day 7 (IL10; [6]): 231^ab picogram/ml | IL10 level in Plasma Day 11 (IL10; [6]): 454^d picogram/ml | TNF-α level in Plasma Day 7 (TNF-α; [5]): 22.77^a picogram/ml | TNF-α level in Plasma Day 11 (TNF-α; [5]): 30.27^b picogram/ml | TNF-α level in Plasma Day 7 (TNF-α; [6]): 29±^ab picogram/ml | TNF-α level in Plasma Day 11 (TNF-α; [6]): 28±^a picogram/ml | IL1-β level in Plasma Day 7 (IL1-β; [5]): 881.52^b picogram/ml | IL1-β level in Plasma Day 11 (IL1-β; [5]): 848.33^bc picogram/ml | IL1-β level in Plasma Day 7 (IL1-β; [6]): 567±^a picogram/ml | IL1-β level in Plasma Day 11 (IL1-β; [6]): 685±^bc picogram/ml | IFN-γ level in Plasma Day 7 (IFN-γ; [5]): 20.8^a picogram/ml | IFN-γ level in Plasma Day 11 (IFN-γ; [5]): 40.23^c picogram/ml | IFN-γ level in Plasma Day 7 (IFN-γ; [6]): 37^b picogram/ml | IFN-γ level in Plasma Day 11 (IFN-γ; [6]): 40^c picogram/ml | TGF-β level in Plasma Day 7 (TGF-β; [5]): 17535 ± 2261a picogram/ml | TGF-β level in Plasma Day 11 (TGF-β; [5]): 32542 ± 5294b picogram/ml | TGF level in Plasma Day 7 (TGF-β; [6]): 37^b picogram/ml | TGF level in Plasma Day 11 (TGF-β; [6]): 40^c picogram/ml | macroscopic examination of the colonic tissue (TNBS induced colitis [2]; Example 3, PB6 (Group 4), Lysophospholipid 10.3 mg/kg (Group 5), combination 21.63 mg/kg (Group 6), Mesacol (Group 7)): no lesions with any visible inflammation or injury in the colonic tissue | Colon Score (TNBS induced colitis [2]; Example 3, macroscopic grade 0-5, oral day 4-10: PB6 1.5 108 CFU/Kg thrice daily, Lysophospholipids 10.3 mg/Kg 2 times daily, combination 25.75 mg/ml 2 times daily, Mesacol 250 mg/Kg once daily): 0.833^a | Colon wet weight (g) (TNBS induced colitis [2]; Example 3, oral day 4-10: PB6 1.5 108 CFU/Kg thrice daily, Lysophospholipids 10.3 mg/Kg 2 times daily, combination 25.75 mg/ml 2 times daily, Mesacol 250 mg/Kg once daily): 0.669^a g | Colon wet weight (g) (TNBS induced colitis [2]; Example 4, Lysoprin + Marinol + lutein at 21.5 mg/kg orally thrice daily day 4-10, Mesacol 250 mg/Kg orally once daily day 4-10): 0.336^ab g | Colon Score (TNBS induced colitis [2]; Example 4, grade 0-5, Lysoprin + Marinol + lutein at 21.5 mg/kg orally thrice daily day 4-10, Mesacol 250 mg/Kg orally once daily day 4-10): 1.000^a | macroscopic examination of the colonic tissue (TNBS induced colitis [2]; Example 4, low dose combination at 21.63 mg/kg (Group 4), Mesacol (Group 6, n=4/6)): signs of amelioration with reduced localized ulceration

CC1=C[C@H](O)CC(C)(C)[C@H]1/C=C/C(C)=C/C=C/C(C)=C/C=C/C=C(C)/C=C/C=C(C)/C=C/C1=C(C)C[C@@H](O)CC1(C)C [Treatment 2, lutein]
performance (feed intake, weight gain, FCR) [3]: comparable to that of the control group

CCC(=O)[O-].CCC(=O)[O-].CCC(=O)[O-].[Cr+3] [Treatment 3, chromium propionate]
relative weight of the thymus [4]: higher | FCR [3]: A similar trend | weight gain [3]: A similar trend

lysophosphatidylcholine [pure LPC]
cytotoxicity (AlamarBlue reduction rate) (HepG2/NFκB-Luc cells): Certain inhibition | inflammation activity (luciferase activity), without TNF-α, highest concentration (NFκB; 50 μM of LPC, compared to the mock treatment): no statistical difference | inflammation activity (luciferase activity), without TNF-α (NFκB; 5, 15 and 50 μM LPC content, 6 hours): inflammatory effect at all the three concentrations tested
